# Laboratory results: patent US20220265694A1, “COMPOSITIONS AND METHODS FOR TREATING AN INFECTION” (CMPD LICENSING, LLC, priority 2016, published 2022)
# Experiments:
# Bacteroides fragilis = test: Expected efficacy of antibiotic agents; conditions: expected efficacy against Bacteroides fragilis; Gram: anaer
# Clostridium difficile = test: Expected efficacy of antibiotic agents; conditions: expected efficacy against Clostridium difficile; Gram: anaer
# Clostridium perfringens = conditions: expected efficacy against Clostridium perfringens; Gram: anaer
# Chlamydia pneumoniae = test: Expected efficacy of antibiotic agents; conditions: expected efficacy against Chlamydia pneumoniae; Gram: n/a
# Chlamydia psittaci = conditions: expected efficacy against Chlamydia psittaci; Gram: n/a
# Chlamydia trachomatis = test: Expected efficacy of antibiotic agents; conditions: expected efficacy against Chlamydia trachomatis; Gram: n/a
# Mycoplasma pneumoniae = test: Expected efficacy of antibiotic agents; conditions: expected efficacy against Mycoplasma pneumoniae; Gram: n/a
# Acinetobacter baumannii = test: Expected efficacy of antibiotic agents; conditions: expected efficacy against Acinetobacter baumannii; Gram: neg
# [1] = test system: Acinetobacter calcoaceticus; test: Expected efficacy of antibiotic agents; conditions: expected efficacy against Acinetobacter calcoaceticus; Gram: neg
# Acinetobacter lwoffii = test: Expected efficacy of antibiotic agents; conditions: expected efficacy against Acinetobacter lwoffii; Gram: neg
# Bordetella pertussis = test: Expected efficacy of antibiotic agents; conditions: expected efficacy against Bordetella pertussis; Gram: neg
# Campylobacter jejuni = test: Expected efficacy of antibiotic agents; conditions: expected efficacy against Campylobacter jejuni; Gram: neg
# Citrobacter diversus = test: Expected efficacy of antibiotic agents; conditions: expected efficacy against Citrobacter diversus; Gram: neg
# Citrobacter freundii = test: Expected efficacy of antibiotic agents; conditions: expected efficacy against Citrobacter freundii; Gram: neg
# Enterobacter aerogenes = test: Expected efficacy of antibiotic agents; conditions: expected efficacy against Enterobacter aerogenes; Gram: neg
# Enterobacter cloacae = test: Expected efficacy of antibiotic agents; conditions: expected efficacy against Enterobacter cloacae; Gram: neg
# Enterobacter sakazakii = test: Expected efficacy of antibiotic agents; conditions: expected efficacy against Enterobacter sakazakii; Gram: neg
# Escherichia coli = test: Expected efficacy of antibiotic agents; conditions: expected efficacy against Escherichia coli; Gram: neg
# Haemophilus ducreyi = test: Expected efficacy of antibiotic agents; conditions: expected efficacy against Haemophilus ducreyi; Gram: neg
# Haemophilus influenzae = test: Expected efficacy of antibiotic agents; conditions: expected efficacy against Haemophilus influenzae; Gram: neg
# [2] = test system: Klebsiella (Calymmatobacterium); test: Expected efficacy of antibiotic agents; conditions: expected efficacy against Klebsiella (Calymmatobacterium); Gram: neg
# Klebsiella oxytoca = test: Expected efficacy of antibiotic agents; conditions: expected efficacy against Klebsiella oxytoca; Gram: neg
# Klebsiella pneumoniae = test: Expected efficacy of antibiotic agents; conditions: expected efficacy against Klebsiella pneumoniae; Gram: neg
# Legionella pneumophila = conditions: expected efficacy against Legionella pneumophila; Gram: neg
# Moraxella catarrhalis = test: Expected efficacy of antibiotic agents; conditions: expected efficacy against Moraxella catarrhalis; Gram: neg
# Neisseria gonorrhoeae = test: Expected efficacy of antibiotic agents; conditions: expected efficacy against Neisseria gonorrhoeae; Gram: neg
# Neisseria meningitidis = test: Expected efficacy of antibiotic agents; conditions: expected efficacy against Neisseria meningitidis; Gram: neg
# Proteus mirabilis = test: Expected efficacy of antibiotic agents; conditions: expected efficacy against Proteus mirabilis; Gram: neg
# Proteus vulgaris = test: Expected efficacy of antibiotic agents; conditions: expected efficacy against Proteus vulgaris; Gram: neg
# Pseudomonas aeruginosa = test: Expected efficacy of antibiotic agents; conditions: expected efficacy against Pseudomonas aeruginosa; Gram: neg
# Pseudomonas fluorescens = test: Expected efficacy of antibiotic agents; conditions: expected efficacy against Pseudomonas fluorescens; Gram: neg
# Serratia marcescens = test: Expected efficacy of antibiotic agents; conditions: expected efficacy against Serratia marcescens; Gram: neg
# Shigella boydii = test: Expected efficacy of antibiotic agents; conditions: expected efficacy against Shigella boydii; Gram: neg
# Shigella dysenteriae = test: Expected efficacy of antibiotic agents; conditions: expected efficacy against Shigella dysenteriae; Gram: neg
# Shigella flexneri = test: Expected efficacy of antibiotic agents; conditions: expected efficacy against Shigella flexneri; Gram: neg
# Shigella sonnei = test: Expected efficacy of antibiotic agents; conditions: expected efficacy against Shigella sonnei; Gram: neg
# Vibrio cholerae = test: Expected efficacy of antibiotic agents; conditions: expected efficacy against Vibrio cholerae; Gram: neg
# Yersinia pestis = conditions: expected efficacy against Yersinia pestis; Gram: neg
# Corynebacterium jeikeium = test: Expected efficacy of antibiotic agents; conditions: expected efficacy against Corynebacterium jeikeium; Gram: pos
# [3] = test system: Corynebacterium urealyticum; test: Expected efficacy of antibiotic agents; conditions: expected efficacy against Corynebacterium urealyticum; Gram: pos
# Enterococcus faecalis = test: Expected efficacy of antibiotic agents; conditions: expected efficacy against Enterococcus faecalis; Gram: pos
# Enterococcus faecium = test: Expected efficacy of antibiotic agents; conditions: expected efficacy against Enterococcus faecium; Gram: pos
# [4] = test system: Methicillin resistant staph aureus (MRSA); test: Expected efficacy of antibiotic agents; conditions: expected efficacy against Methicillin resistant staph aureus (MRSA); Gram: pos
# Peptostreptococcus = test: Expected efficacy of antibiotic agents; conditions: expected efficacy against Peptostreptococcus; Gram: pos
# [5] = test system: Staphylococcus aureus (MSSA); test: Expected efficacy of antibiotic agents; conditions: expected efficacy against Staphylococcus aureus (MSSA); Gram: pos
# [6] = test system: Staphylococcus epidermidis; test: Expected efficacy of antibiotic agents; conditions: expected efficacy against Staphylococcus epidermidis; Gram: pos
# Streptococcus agalactiae = test: Expected efficacy of antibiotic agents; conditions: expected efficacy against Streptococcus agalactiae; Gram: pos
# Streptococcus pneumoniae = test: Expected efficacy of antibiotic agents; conditions: expected efficacy against Streptococcus pneumoniae; Gram: pos
# Streptococcus pyogenes = test: Expected efficacy of antibiotic agents; conditions: expected efficacy against Streptococcus pyogenes; Gram: pos
# [7] = test system: Viridans group streptococci; test: Expected efficacy of antibiotic agents; conditions: expected efficacy against Viridans group streptococci; Gram: pos
# Aspergillus flavus = test: Expected efficacy of antifungal agents; conditions: expected efficacy against Aspergillus flavus
# Aspergillus fumigatus = test: Expected efficacy of antifungal agents; conditions: expected efficacy against Aspergillus fumigatus
# Aspergillus niger = test: Expected efficacy of antifungal agents; conditions: expected efficacy against Aspergillus niger
# Aspergillus terreus = test: Expected efficacy of antifungal agents; conditions: expected efficacy against Aspergillus terreus
# Blastomyces dermatitidis = test: Expected efficacy of antifungal agents; conditions: expected efficacy against Blastomyces dermatitidis
# Candida species = test: Expected efficacy of antifungal agents; conditions: expected efficacy against Candida species
# Coccidioides immitis = conditions: expected efficacy against Coccidioides immitis
# Cryptococcus neoformans = test: Expected efficacy of antifungal agents; conditions: expected efficacy against Cryptococcus neoformans
# Histoplasma capsulatum = conditions: expected efficacy against Histoplasma capsulatum
# Leishmania donovani = test: Expected efficacy of antifungal agents; conditions: expected efficacy against Leishmania donovani
# Leishmania infantum = test: Expected efficacy of antifungal agents; conditions: expected efficacy against Leishmania infantum
# [8] = test system: Paracoccidioides brasiliensis; test: Expected efficacy of antifungal agents; conditions: expected efficacy against Paracoccidioides brasiliensis
# Brucella species = conditions: expected efficacy against Brucella species; Gram: neg
# [9] = test system: Haemophilus parainfluenzae; test: Expected efficacy of antibiotic agents; conditions: expected efficacy against Haemophilus parainfluenzae; Gram: neg
# Providencia rettgeri = test: Expected efficacy of antibiotic agents; conditions: expected efficacy against Providencia rettgeri; Gram: neg
# Providencia stuartii = test: Expected efficacy of antibiotic agents; conditions: expected efficacy against Providencia stuartii; Gram: neg
# Diphtheroids = test: Expected efficacy of antibiotic agents; conditions: expected efficacy against Diphtheroids; Gram: pos
# Fusarium species = test: Expected efficacy of antifungal agents; conditions: expected efficacy against Fusarium species
# Scedosporium apiospermum = test: Expected efficacy of antifungal agents; conditions: expected efficacy against Scedosporium apiospermum
compound,measurement,setting,value
NC[C@H]1O[C@H](O[C@H]2[C@H](O)[C@@H](O[C@H]3O[C@H](CO)[C@@H](O)[C@H](N)[C@H]3O)[C@H](N)C[C@@H]2N)[C@H](N)C[C@@H]1O [Tobramycin],Efficacy,Bacteroides fragilis,no
same,Efficacy,Clostridium difficile,no
same,Efficacy,Clostridium perfringens,no
same,Efficacy,Chlamydia pneumoniae,no
same,Efficacy,Chlamydia psittaci,no
same,Efficacy,Chlamydia trachomatis,no
same,Efficacy,Mycoplasma pneumoniae,no
same,Efficacy,Acinetobacter baumannii,no
same,Efficacy,[1],no
same,Efficacy,Acinetobacter lwoffii,no
same,Efficacy,Bordetella pertussis,no
same,Efficacy,Campylobacter jejuni,yes
same,Efficacy,Citrobacter diversus,yes
same,Efficacy,Citrobacter freundii,yes
same,Efficacy,Enterobacter aerogenes,yes
same,Efficacy,Enterobacter cloacae,yes
same,Efficacy,Enterobacter sakazakii,yes
same,Efficacy,Escherichia coli,yes
same,Efficacy,Haemophilus ducreyi,yes
same,Efficacy,Haemophilus influenzae,yes
same,Efficacy,[2],yes
same,Efficacy,Klebsiella oxytoca,yes
same,Efficacy,Klebsiella pneumoniae,yes
same,Efficacy,Legionella pneumophila,no
same,Efficacy,Moraxella catarrhalis,yes
same,Efficacy,Neisseria gonorrhoeae,no
same,Efficacy,Neisseria meningitidis,no
same,Efficacy,Proteus mirabilis,yes
same,Efficacy,Proteus vulgaris,yes
same,Efficacy,Pseudomonas aeruginosa,yes
same,Efficacy,Pseudomonas fluorescens,yes
same,Efficacy,Serratia marcescens,yes
same,Efficacy,Shigella boydii,yes
same,Efficacy,Shigella dysenteriae,yes
same,Efficacy,Shigella flexneri,yes
same,Efficacy,Shigella sonnei,yes
same,Efficacy,Vibrio cholerae,no
same,Efficacy,Yersinia pestis,yes
same,Efficacy,Corynebacterium jeikeium,no
same,Efficacy,[3],no
same,Efficacy,Enterococcus faecalis,no
same,Efficacy,Enterococcus faecium,no
same,Efficacy,[4],no
same,Efficacy,Peptostreptococcus,no
same,Efficacy,[5],no
same,Efficacy,[6],no
same,Efficacy,Streptococcus agalactiae,no
same,Efficacy,Streptococcus pneumoniae,no
same,Efficacy,Streptococcus pyogenes,no
same,Efficacy,[7],no
C[C@@H]1[C@H](O)[C@@H](C)/C=C/C=C/C=C/C=C/C=C/C=C/C=C/[C@H](O[C@@H]2O[C@H](C)[C@@H](O)[C@H](N)[C@@H]2O)C[C@@H]2O[C@](O)(C[C@@H](O)C[C@@H](O)[C@H](O)CC[C@@H](O)C[C@@H](O)CC(=O)O[C@H]1C)C[C@H](O)[C@H]2C(=O)O [Amphotericin],Efficacy,Aspergillus flavus,yes
same,Efficacy,Aspergillus fumigatus,yes
same,Efficacy,Aspergillus niger,yes
same,Efficacy,Aspergillus terreus,yes
same,Efficacy,Blastomyces dermatitidis,yes
same,Efficacy,Candida species,yes
same,Efficacy,Coccidioides immitis,yes
same,Efficacy,Cryptococcus neoformans,yes
same,Efficacy,Histoplasma capsulatum,yes
same,Efficacy,Leishmania donovani,yes
same,Efficacy,Leishmania infantum,yes
same,Efficacy,[8],yes
Colistimethate,Efficacy,Bacteroides fragilis,no
same,Efficacy,Clostridium difficile,no
same,Efficacy,Chlamydia pneumoniae,no
same,Efficacy,Chlamydia psittaci,no
same,Efficacy,Chlamydia trachomatis,no
same,Efficacy,Mycoplasma pneumoniae,no
same,Efficacy,Bordetella pertussis,no
same,Efficacy,Brucella species,no
same,Efficacy,Enterobacter aerogenes,yes
same,Efficacy,Enterobacter cloacae,yes
same,Efficacy,Enterobacter sakazakii,yes
same,Efficacy,Escherichia coli,yes
same,Efficacy,[9],no
same,Efficacy,[2],yes
same,Efficacy,Klebsiella oxytoca,yes
same,Efficacy,Klebsiella pneumoniae,yes
same,Efficacy,Legionella pneumophila,no
same,Efficacy,Moraxella catarrhalis,no
same,Efficacy,Neisseria gonorrhoeae,no
same,Efficacy,Neisseria meningitidis,no
same,Efficacy,Proteus mirabilis,no
same,Efficacy,Proteus vulgaris,no
same,Efficacy,Providencia rettgeri,no
same,Efficacy,Providencia stuartii,no
same,Efficacy,Pseudomonas aeruginosa,yes
same,Efficacy,Pseudomonas fluorescens,yes
same,Efficacy,Serratia marcescens,no
same,Efficacy,Vibrio cholerae,no
same,Efficacy,Corynebacterium jeikeium,no
same,Efficacy,[3],no
same,Efficacy,Diphtheroids,no
same,Efficacy,Enterococcus faecalis,no
same,Efficacy,Enterococcus faecium,no
same,Efficacy,[4],no
same,Efficacy,Peptostreptococcus,no
same,Efficacy,[5],no
same,Efficacy,[6],no
same,Efficacy,Streptococcus agalactiae,no
same,Efficacy,Streptococcus pneumoniae,no
same,Efficacy,Streptococcus pyogenes,no
same,Efficacy,[7],no
OC(Cn1cncn1)(Cn1cncn1)c1ccc(F)cc1F [Fluconazole],Efficacy,Aspergillus flavus,yes
same,Efficacy,Aspergillus fumigatus,yes
same,Efficacy,Blastomyces dermatitidis,yes
same,Efficacy,Candida species,yes
same,Efficacy,Coccidioides immitis,yes
same,Efficacy,Cryptococcus neoformans,yes
same,Efficacy,Histoplasma capsulatum,yes
C[C@@H](c1ncncc1F)[C@](O)(Cn1cncn1)c1ccc(F)cc1F [Voriconazole],Efficacy,Aspergillus flavus,yes
same,Efficacy,Aspergillus fumigatus,yes
same,Efficacy,Aspergillus niger,yes
same,Efficacy,Aspergillus terreus,yes
same,Efficacy,Candida species,yes
same,Efficacy,Fusarium species,yes
same,Efficacy,Scedosporium apiospermum,yes
